Measured values published in patent publication US20180215787A1, “Chromogenic And Fluorogenic Peptide Substrates For The Detection Of Serine Protease Activity” (RUPRECHT-KARLS-UNIVERSITÄT HEIDELBERG, priority 2015, published 2018).

Columns and labels:
[1] = cited from earlier work
factor Xa [2] = molecular target: T1, factor Xa (Bos taurus, UniProt P00743); assay: Kinetic measurements (Michaelis-Menten) of factor Xa substrates; assay type: biochemical
Experimental: (§1) Commercial substrate 1a, depicted in FIG. 2, was used as reference in the kinetic measurements. The kinetic values KM, kcat and kcat/KM were established for the fluorogenic compound 1 using Human Thrombin. In order to compare the results of 1 and 1a, the absorption of the released chromophores was measured during the enzymatic reaction (570 nm for resorufin and 380 nm for p-nitroaniline).
(§2) The same parameters were also determined for 1 by measuring the emission of resorufin at 583 nm and similar values to the ones obtained from absorption were found (FIG. 5A).
A similar conjugate, with the same peptide sequence, but having p-nitroanilide as reporter, has a much higher KM (40 μM) and the enzyme has poorer catalytic efficiency for this substrate (2.7×10^6 M^−1 s^−1). Thus, compound 2 of the present invention performs better than the best factor Xa substrate so far reported.
The kinetic parameters were determined as described for the other substrates (cf. Example 4). The results of Michaelis-Menten kinetic is depicted in FIG. 13.

thrombin [3] = molecular target: T2, thrombin (Homo sapiens, UniProt P00734); assay: Fluorescence assay to evaluate specificity of compound 1 toward thrombin; assay type: biochemical; details: Compound 1 5 μM, proteases 100 pM
Experimental: (§3) The enzymatic reactions were carried out in 50 mM Tris buffer pH 8.3 and 130 mM NaCl.
(§4) the specificity of Compound 1 of the present invention toward thrombin was tested. Compound 1 (5 μM) was incubated in the presence of thrombin (100 pM) and some possible interfering proteases and proteins, like trypsin, factor Xa, myoglobin, cytochrome C and BSA (100 pM). The increase of fluorescence in response to factor Xa, myoglobin, cytochrome C and BSA was negligible (FIG. 6). […] A commercial assay can detect 1 pM thrombin, by fishing it out of plasma samples using microwells coated with DNA-aptamer. The AMC-based substrate is converted by thrombin to fluorescent product after the enrichment step. The fluorescence assay according to the present invention allowed the detection of thrombin at the concentrations as low as 0.5 pM in water solution (FIG. 7), which was achieved without any enrichment step.

trypsin = assay: Fluorescence specificity assay, trypsin; assay type: biochemical; details: Compound 1 5 μM, trypsin 100 pM
Experimental: as §3, §4

factor Xa [4] = molecular target: T1, factor Xa; assay: Fluorescence specificity assay, factor Xa; assay type: biochemical; details: Compound 1 5 μM, factor Xa 100 pM
Experimental: as §3, §4

myoglobin = molecular target: T3, myoglobin (Homo sapiens, UniProt P02144); assay: Fluorescence specificity assay, myoglobin; assay type: biochemical; details: Compound 1 5 μM, myoglobin 100 pM
T3 sequence (P02144 1-154): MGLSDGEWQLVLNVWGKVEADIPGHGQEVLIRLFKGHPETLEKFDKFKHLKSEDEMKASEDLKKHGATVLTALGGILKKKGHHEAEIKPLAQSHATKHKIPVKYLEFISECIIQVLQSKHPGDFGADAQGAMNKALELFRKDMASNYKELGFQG
Experimental: as §3, §4

cytochrome C = cytochrome C (Homo sapiens, UniProt P99999); assay: Fluorescence specificity assay, cytochrome C; assay type: biochemical; details: Compound 1 5 μM, cytochrome C 100 pM
Experimental: as §3, §4

BSA = BSA (Bos taurus, UniProt P02769); assay: Fluorescence specificity assay, BSA; assay type: biochemical; details: Compound 1 5 μM, BSA 100 pM
Experimental: as §3, §4

thrombin [5] = molecular target: T2, thrombin; assay: Fluorescence assay for determination of thrombin in water (LOD); assay type: biochemical; details: in water solution, without enrichment step
Experimental: The mean change of resorufin fluorescence dF/min is plotted versus the corresponding thrombin concentration (in pM).
as §4

[6] = Stability toward spontaneous hydrolysis in thrombin buffer; assay type: physicochemical; details: incubation with thrombin buffer (Tris pH 8.3), 24° C.
Experimental: A. Absorption spectra of resorufin and compound 1 of the present invention; B. Enzymatic hydrolysis of 1 (5 μM) in the presence of thrombin (100 pM) with Tris buffer pH 8.3 (λex=570 nm; λem=583 nm) at 24° C.; inset: full emission spectra recorded after 60 min, with and without enzyme; C.
The photophysical properties of compound 1 of the present invention, as well as its enzymatic conversion to fluorescent product resorufin were investigated. […] It also has a negligible emission, if exited either at its maxima (480 nm) or at resorufin maxima (570 nm).

thrombin [7] = molecular target: T2, thrombin; assay: Kinetic measurements with Human Thrombin; assay type: biochemical; details: absorption of released chromophore, 570 nm
Experimental: as §1, §2

[8] = factor Xa substrate, Michaelis-Menten kinetic

T1 sequence (P00743 234-492 limits assumed): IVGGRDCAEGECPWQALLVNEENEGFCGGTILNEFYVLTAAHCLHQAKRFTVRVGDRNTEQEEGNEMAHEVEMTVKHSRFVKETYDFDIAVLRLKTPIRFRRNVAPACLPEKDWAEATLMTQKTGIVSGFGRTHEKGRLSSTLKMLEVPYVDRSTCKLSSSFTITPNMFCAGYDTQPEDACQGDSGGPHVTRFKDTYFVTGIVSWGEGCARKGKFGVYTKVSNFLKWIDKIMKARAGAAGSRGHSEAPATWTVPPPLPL
T1 sequence (P00743 41-180 partner limits assumed): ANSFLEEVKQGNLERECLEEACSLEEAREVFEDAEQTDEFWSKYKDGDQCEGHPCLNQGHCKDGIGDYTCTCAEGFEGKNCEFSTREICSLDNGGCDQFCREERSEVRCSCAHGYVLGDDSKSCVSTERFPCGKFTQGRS
cytochrome C, sequence (P99999 whole entry, species assumed): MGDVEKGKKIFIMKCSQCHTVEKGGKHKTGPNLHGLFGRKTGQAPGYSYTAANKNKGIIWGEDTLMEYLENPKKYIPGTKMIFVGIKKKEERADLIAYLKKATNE
BSA, sequence (P02769 25-607): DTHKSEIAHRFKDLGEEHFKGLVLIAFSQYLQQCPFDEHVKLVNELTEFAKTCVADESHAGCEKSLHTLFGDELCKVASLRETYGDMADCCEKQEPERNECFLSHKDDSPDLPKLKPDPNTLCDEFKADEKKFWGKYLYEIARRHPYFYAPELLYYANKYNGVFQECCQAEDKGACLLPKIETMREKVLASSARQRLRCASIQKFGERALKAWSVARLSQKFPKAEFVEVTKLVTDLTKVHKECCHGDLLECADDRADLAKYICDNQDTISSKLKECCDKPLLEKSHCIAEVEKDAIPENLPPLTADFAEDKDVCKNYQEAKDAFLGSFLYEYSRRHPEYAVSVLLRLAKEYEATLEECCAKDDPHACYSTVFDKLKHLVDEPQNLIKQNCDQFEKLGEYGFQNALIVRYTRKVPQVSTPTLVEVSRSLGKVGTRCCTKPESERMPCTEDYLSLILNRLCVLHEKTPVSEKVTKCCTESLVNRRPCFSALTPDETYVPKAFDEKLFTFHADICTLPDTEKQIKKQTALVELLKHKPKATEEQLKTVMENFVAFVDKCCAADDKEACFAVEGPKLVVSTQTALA

Compound: O=c1ccc2nc3ccc(O)cc3oc-2c1 [resorufin, 7-Hydroxy-3H-phenoxazin-3-one]
- pKa [1]: ~6.0

Compound: BzIs-D-Arg-Gly-Arg-PABA-Res [Compound 2]
- KM value (in words) (factor Xa [2]; FIG. 5B): very low KM value
- catalytic efficiency (in words) (factor Xa [2]; FIG. 5B): excellent catalytic efficiency
- turnover number kcat (in words) (factor Xa [2]; FIG. 5B): relatively good turnover number

Compound: Cbz-D-Arg-Gly-Arg-PABA-Res [Compound 2a]
- Km (factor Xa [2]; [8]): 5.5 µM
- kcat (factor Xa [2]; [8]): 4.9 s⁻¹

Compound: D-Phe-Pro-Arg-PABA-Res [Compound 1]
- specificity for thrombin compared to factor Xa (thrombin [3]): 400 times
- selectivity for thrombin over trypsin (thrombin [3]; 50 mM Tris pH 8.3, 130 mM NaCl): 7.5 fold
- hydrolysis by trypsin (rate compared to thrombin) (trypsin): slower rate compared to thrombin
- increase of fluorescence in response to factor Xa (factor Xa [4]): negligible
- increase of fluorescence in response to myoglobin (myoglobin): negligible
- increase of fluorescence in response to cytochrome C (cytochrome C): negligible
- increase of fluorescence in response to BSA (BSA): negligible
- lowest detectable thrombin concentration (thrombin [5]): 0.5 pM
- spontaneous hydrolysis / chemical stability [6]: no spontaneous hydrolysis
- thrombin turnover compared with commercial substrate 1a (thrombin [7]): did not suffer at all
